# Laboratory results taken from patent publication US20230103514A1, “A TOPICAL COMPOSITION COMPRISING AN EXTRACT OF COMBINED HERBS COMPRISING LONGANAE ARILLUS FOR THE SKIN REGENERATION AND THE TREATMENT OR ALLEVIATION OF SKIN WOUND AND THE USE THEREOF” (MEDIHELPLINE CO., LTD, priority 2020, published 2023).
# How the values were obtained:
# TSLP = assay: Inhibitory effect on cytokine expression (RT-PCR, TNF alpha-induced HaCaT cells): TSLP; format: cell-based, human; conditions: TNFα 50 ng/ml, extract 1 μg/ml, Dex 200 nM, non-induced = 1
# Description: (§1) In order to determine the anti-inflammatory activity of inventive extract, following inhibition test of cytokine expression using HaCaT cell was performed according to the procedure disclosed in the literature (Jeong et al., 2019, J. Invest. Dermatol., May; 139 (5): pp1098-1109). ?
# (§2) HaCaT cell (human epithelial keratinocyte cell, 300493, CLS) was inoculated into DMEM medium containing 10% Fetal bovine serum, 100 units/ml of penicillin, 100 μg/ml of streptomycin (D6429, Sigma-Aldrich Co. Ltd) and was incubated in the incubator (HERA cell 150i, Thermo Fisher Scientific Co. Ltd.) maintaining optimum humidity (85-95%) and 5% CO2 atmosphere.
# (§3) For performing gene expression test, the incubated cells were transferred to 12 wells and 50 ng/ml of TNF alpha (RC214-12, Biobasic Co. Ltd) was treated therewith for 1 hour to induce inflammatory response.
# (§4) 1 hour after inducing the inflammation, 1 μg/ml of inventive extract prepared in Examples was treated with identical medium and subjected to incubation for 1 hour. After the incubation, RNA (FATRR-001, Favorgen) was extracted from the cell and cDNA was synthesized from the RNA using by cDNA synthesis kit (RRO36A, TAKARA). […]
# IL-1β = assay: Inhibitory effect on cytokine expression (RT-PCR, TNF alpha-induced HaCaT cells): IL-1β; format: cell-based, human; conditions: TNFα 50 ng/ml, extract 1 μg/ml, Dex 200 nM, non-induced = 1
# Description: as §1, §2, §3, §4
smiles,measurement,setting,value
"C[C@@H]1C[C@H]2[C@@H]3CCC4=CC(=O)C=C[C@]4(C)[C@@]3(F)[C@@H](O)C[C@]2(C)[C@@]1(O)C(=O)CO [Dex, Dexamethasone]",TSLP expression (quantitative RT-PCR),TSLP,52.49
same,IL-1β expression (quantitative RT-PCR),IL-1β,1.081
